Laboratory results as given in US12612395B2, “Rocaglate derivatives and uses thereof” (TRUSTEES OF BOSTON UNIVERSITY, priority 2023, dated 2026).
Entries after “also recorded” stand apart in the source; their conditions may differ. Read-outs that look alike come from different tables or passages of the source.

Key:
GBM0308 CSCs = assay: Dose-response killing of GBM CSCs (PI/Hoechst, Celigo cytometer); assay type: cell-based; conditions: for CSCs Max. observed efficacy (% dead cells): up to 10 μM
From the text: The inventors first evaluated a cohort of seven rocaglate translation inhibitors (1, 3-7, and 9, FIG. 1A and Table 1, compounds 2 and 8 were not tested due to unavailability). To assay for compounds that selectively affect GBM CSCs, the inventors employed the patient-derived tumor-initiating cell (TIC) cell line […] that forms neurospheres (consisting exclusively of tumor-initiating cells or CSCs) when cultured in neurobasal (NBE) medium. Upon exposure to serum and growth factor withdrawal, however, the cell line differentiates, acquires a flattened morphology, and forms a non-CSC population.^20 Thus, compounds can be tested in parallel to assess their effect on GBM CSCs vs. GBM non-CSCs as separate populations with a clean and robust response. This approach has been previously used to perform RNAi-based genetic screens to identify modulators of CSCs.^20 In this study, GBM0308 cells, cultured in stem cell conditions to form CSCs or in medium containing serum to induce differentiation into a non-CSC population, were treated in parallel with compounds at varying doses. Three days post-treatment, propidium iodide (PI) and Hoechst staining were performed and quantified using a Celigo image cytometer. Hoechst dye stained all […] nucleated cells, while PI exclusively stained dead cells. Cell viability and the percentage of cell death were then determined.
Cell Culture: Glioblastoma stem cell lines GBM0308, BT145, and BT112 were cultured in neurobasal (NBE medium) containing N-2 and B-27 supplements, EGF, bFGF, L-glutamine, and Penicillin-Streptomycin), as described previously.^19 Adherent GBM cells were cultured in serum-containing DMEM media (Invitrogen) supplemented with 10% fetal bovine serum (Corning Cellgro™). Cells were incubated at 37° C. and 5% CO2 to allow neurosphere formation. For seeding and subculturing, the neurospheres were gently trypsinized with 0.025% trypsin to form a single-cell suspension.
Dose-Response Testing in GBM Cells: Briefly, on day 1, cells were seeded in triplicate. For CSCs, 1500 cells/well were plated in a low attachment 96-well plate with NBE media and incubated for 3 days at 37° C. and 5% CO2 to allow the formation of neurospheres. For non-CSCs, 3000 cells/well were plated in a 96-well plate with DMEM media supplemented with 10% FBS. Similarly, the assay plates were also incubated for the same duration. Compound treatments started on day 4. Each compound was resuspended in DMSO and then diluted to different concentrations in media to a final concentration of DMSO less than 1%. The compounds were added at concentrations of 10, 3.3, 1.11, 0.37, 0.12, 0.041, 0.013, and 0.004 µM, respectively. DMSO-treated cells served as a control. After 72 h incubation with the compounds, fluorescent stains, propidium iodide, and Hoechst 33342 (Life Technologies, Carlsbad, CA), were used to stain the GBM cells to determine cell viability. A staining solution in 1×PBS was prepared by mixing PI and Hoechst 33342 to working concentrations of 2.5 μM and 20 μM, respectively. 20 μL of this staining solution was added per well, and plates were incubated at 37° C. and 5% CO2 for 60 min. After incubation, plates were read by Celigo imaging cytometer using an inbuilt Celigo application; Cell Viability (Dead+Total). For the viability measurement, the total number of neurospheres/cells and dead neurospheres/cells in each well were counted by the cytometer. The percentage of PI+ cells was normalized to DMSO and plotted against the drug concentration to calculate the EC50 with a four-parameter, variable-slope dose-response curve with an upper constraint of <100% dead cells and a lower constraint of =0% dead cells (GraphPad Prism v.10.0.0). For all dose response experiments, the experimental maximal efficacy (maximum observed % cell death) is reported. Relative EC50 values are reported for all compounds killing >50% of cells.

[1] = target: DDX3X:FAM-labeled poly r(AG)8 (Homo sapiens, UniProt O00571); assay: Fluorescence polarization (FP) RNA clamping assay, DDX3X; assay type: binding; conditions: 1 mM ATP; for stimulation of DDX3X:(AG)8 complex formation in protein titration, in words: 50 μM rocaglate; for stimulation of DDX3X binding to RNA (change in polarization), in words: compound 10 μM
Sequence of DDX3X:FAM-labeled poly r(AG)8 (O00571 whole entry, species assumed): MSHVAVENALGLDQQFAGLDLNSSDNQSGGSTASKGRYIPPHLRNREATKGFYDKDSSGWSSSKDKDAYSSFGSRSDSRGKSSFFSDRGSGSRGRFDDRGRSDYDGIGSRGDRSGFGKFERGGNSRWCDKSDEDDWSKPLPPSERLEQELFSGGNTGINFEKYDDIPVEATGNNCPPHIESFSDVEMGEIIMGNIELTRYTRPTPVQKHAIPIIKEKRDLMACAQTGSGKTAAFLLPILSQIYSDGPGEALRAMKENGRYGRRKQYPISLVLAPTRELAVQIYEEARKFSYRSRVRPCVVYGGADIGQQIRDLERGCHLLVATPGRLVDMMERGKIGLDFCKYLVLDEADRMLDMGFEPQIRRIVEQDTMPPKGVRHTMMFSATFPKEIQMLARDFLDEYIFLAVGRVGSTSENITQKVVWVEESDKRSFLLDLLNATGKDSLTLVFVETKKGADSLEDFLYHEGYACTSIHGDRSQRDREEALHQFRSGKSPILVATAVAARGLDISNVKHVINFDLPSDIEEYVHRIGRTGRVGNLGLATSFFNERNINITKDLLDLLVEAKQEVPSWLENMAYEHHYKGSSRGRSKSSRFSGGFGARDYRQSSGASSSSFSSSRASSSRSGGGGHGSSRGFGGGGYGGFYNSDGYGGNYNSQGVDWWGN
From the text: Given these observations, the inventors next sought to interrogate the effects of compound (−)-20 in secondary assays for both eIF4A and DDX3 engagement. […] While inherent differences between the FP assay conditions (e.g. probe affinity, protein mobility in FP buffer) preclude direct comparison of absolute AmP values across the two different proteins, the inventors noted that relative anti-CSC potencies for these compounds ((−)-7>(−)-5≈(−)-20) were similar to their relative degrees of clamping for DDX3X and eIF4A1. To follow up on these findings, the inventors performed in vitro translation experiments using a bicistronic mRNA reporter construct FF-HCV-Ren, where translation of the firefly luciferase (FF) cistron is cap-dependent, while translation of the Renilla luciferase (HCV-Ren) cistron is driven off an HCV-IRES, rendering translation of this cistron cap-independent.
Fluorescence Polarization (FP) Assays: Recombinant DDX3X or eIF4A1 (1.5 μM) were incubated with 10 nM FAM-labelled RNA probe and test compounds for 10 min in FP buffer (14.4 mM HEPES-KOH (pH 8), 108 mM NaCl, 1 mM MgCl2, 14.4% glycerol, 0.1% DMSO, 2 mM DTT, 1 mM ATP) at room temperature in black, low-volume 384 well plates (Corning 3820). FP readings were performed using a Pherastar FS microplate reader (BMG Labtech). Compounds were tested at a final concentration of 10 μM.^S9 For ADP+Pi conditions, ATP was substituted with 1 mM ADP and 1 mM Na2HPO4. To assess potency of complex formation, proteins were titrated in the presence of 10 nM probe, 50 μM compounds and 1 mM ATP. Experiments were run in three replicates, with each replicate employing the same master mix of protein, probe and buffer split across the four test conditions (DMSO+three test compounds). Within each replicate, data was normalized such that the highest response across the four tested conditions (as raw AmP counts) was used as 100% relative change in polarization, and the lowest response across the four tested conditions was used as 0% relative change in polarization. Data was analyzed using GraphPad Prism 8.4.0, with a “[Agonist] vs. normalized response” nonlinear regression model used to determine the EC50 for stimulation of helicase-RNA probe binding in the presence of test compound.

## COc1cc(OC)c2c(c1)O[C@@]1(c3ccc(Br)cc3)[C@H](c3ccccc3)[C@@H](C(=O)NS(=O)(=O)N(C)C)[C@@H](O)[C@@]21O [(−)-20, (1R,2R,3S,3aR,8bS)-3a-(4-bromophenyl)-N—(N,N-dimethylsulfamoyl)-1,8b-dihydroxy-6,8-dimethoxy-3-phenyl-2,3,3a,8b-tetrahydro-1H-cyclopenta[b]benzofuran-2-carboxamide]
GBM0308 CSCs; CSC EC50 vs translation EC50
  fold by which potency of CSC death is higher than effects on cap-dependent translation: ~20 fold
GBM0308 CSCs; Homo sapiens, 72 h, Table 2, GBM0308 CSCs, 72 h treatment, relative EC50, read-out: CSCs EC50
  EC50: 45 nM
GBM0308 CSCs; Homo sapiens, 72 h, read-out: CSCs Max. observed efficacy (% dead cells), Table 2, GBM0308 CSCs, 72 h, highest tested concentration 10 μM
  Emax: 93%
[1]
  stimulation of DDX3X:(AG)8 complex formation in protein titration, in words: significant enhancement of binding stimulation
  stimulation of DDX3X binding to RNA (change in polarization), in words: stimulated RNA binding to a greater extent

## CONC(=O)[C@H]1[C@@H](O)[C@@]2(O)c3c(OC)cc(OC)cc3O[C@@]2(c2ccc(Br)cc2)[C@@H]1c1ccccc1 [(−)-7, SDS-1-021]
GBM0308 CSCs; Table 1, GBM0308 CSCs, 72 h
  CSCs Max. observed efficacy (% dead cells): 92%
GBM0308 CSCs; Table 1, GBM0308 CSCs, 72 h treatment, relative EC50, given for compounds causing at least 50% cell death, read-out: CSCs EC50
  EC50: 7 nM
[1]
  stimulation of DDX3X:(AG)8 complex formation in protein titration, in words: clearly favored; also recorded: significant enhancement of binding stimulation
  stimulation of DDX3X binding to RNA (change in polarization), in words: stimulated RNA binding to a greater extent

## CONC(=O)[C@H]1[C@@H](O)[C@@]2(O)c3c(OC)cc(OC)cc3O[C@@]2(c2ccc(OC)cc2)[C@@H]1c1ccccc1 [(−)-5, CR-1-31b, reference compound]
GBM0308 CSCs; GBM0308 CSCs, read-out: CSC EC50
  EC50: 36 nM
GBM0308 CSCs; Table 1, GBM0308 CSCs, 72 h
  CSCs Max. observed efficacy (% dead cells): 91%
[1]
  stimulation of DDX3X:(AG)8 complex formation in protein titration, in words: significantly less efficacious
